Experimental data reported in patent US20230301300A1, “HERBICIDAL COMPOSITIONS” (SYNGENTA CROP PROTECTION AG, priority 2020, published 2023).

Key:
Test in all cases: B2 Post-Emergence Efficacy - Test 2
Type in all cases: in vivo
Sida spinosa (SIDSP) = conditions: 15 days after application, 0-100 scale
Summary of the method: (§1)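 Glasshouse post-emergence test: plants sown in standard soil, grown 12 days (24/18 °C or 20/16 °C day/night; 16 h light; 65% humidity), sprayed once with an aqueous IF50-based formulation including 0.2% v/v Genapol X080. Visual injury, 0–100, recorded 15 days post-application.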

Glycine max (GLXMA) = conditions: 15 days after application; for Herbicidal activity GLXMA: 0-100 scale; for Herbicidal activity on a 0-100 scale, GLXMA: 0=no damage, 100=total kill
Summary of the method: as §1

Poa annua (POAAN) = conditions: 15 days after application, 0-100 scale
Summary of the method: as §1

[1] = tested on: Amaranthus retroflexus (AMARE); conditions: 15 days after application, 0-100 scale
Summary of the method: as §1

[2] = tested on: Digitaria sanguinalis (DIGSA); conditions: 15 days after application, 0=no damage, 100=total kill
Summary of the method: as §1

Avena fatua (AVEFA) = conditions: 15 days after application, 0-100 scale
Summary of the method: as §1

Kochia scoparia (KSHSC) = conditions: 15 days after application, 0-100 scale
Summary of the method: as §1

Sinapis arvensis (SINAR) = conditions: 15 days after application, 0-100 scale
Summary of the method: as §1

[3] = tested on: Xanthium strumarium (XANST); conditions: 15 days after application, 0-100 scale
Summary of the method: as §1

Lolium perenne (LOLPE) = conditions: 15 days after application, 0-100 scale
Summary of the method: as §1

[4] = tested on: Abutilon theophrasti (ABUTH); conditions: 15 days after application, 0-100 scale
Summary of the method: as §1

Sorghum bicolour (SORVU) = conditions: 15 days after application, 0=no damage, 100=total kill
Summary of the method: as §1

Bromus tectorum (BROTE) = conditions: 15 days after application, 0-100 scale
Summary of the method: as §1

[5] = tested on: Ipomoea hederacea (IPOHE); conditions: 15 days after application, 0-100 scale
Summary of the method: as §1

Beta vulgaris (BEAVA) = conditions: 15 days after application, 0-100 scale
Summary of the method: as §1

Brassica napus (BRSNN) = conditions: 15 days after application, 0-100 scale
Summary of the method: as §1

[6] = tested on: Brachiaria plantaginea (BRAPL); conditions: 15 days after application, 0=no damage, 100=total kill
Summary of the method: as §1

[7] = tested on: Triticum aestivum (TRZAW); conditions: 15 days after application, 0-100 scale
Summary of the method: as §1

Cc1nn(C)c(=O)c(-c2c(F)ccc(Cl)c2CCc2ccc(F)cc2)c1OC(=O)C(C)C [Compound 1.125, [5-[3-chloro-6-fluoro-2-[2-(4-fluorophenyl)ethyl]phenyl]-1,3-dimethyl-6-oxo-pyridazin-4-yl] 2-methylpropanoate]
30: Herbicidal activity on a 0-100 scale, DIGSA ([2]; 250 g/Ha) | Herbicidal activity AVEFA (Avena fatua (AVEFA); 15 g/Ha) | Herbicidal activity KCHSC (Kochia scoparia (KSHSC); 60 g/Ha) | Herbicidal activity TRZAW ([7]; 250 g/Ha)
80: Herbicidal activity SIDSP (Sida spinosa (SIDSP); 60 g/Ha) | Herbicidal activity AMARE ([1]; 15 g/Ha) | Herbicidal activity AVEFA (Avena fatua (AVEFA); 500 g/Ha) | Herbicidal activity SINAR (Sinapis arvensis (SINAR); 60 g/Ha) | Herbicidal activity LOLPE (Lolium perenne (LOLPE); 250 g/Ha) | Herbicidal activity ABUTH ([4]; 15 g/Ha) | Herbicidal activity on a 0-100 scale, SORVU (Sorghum bicolour (SORVU); 250 g/Ha) | Herbicidal activity BRSNN (Brassica napus (BRSNN); 15 g/Ha) | Herbicidal activity BRSNN (Brassica napus (BRSNN); 30 g/Ha) | Herbicidal activity BRSNN (Brassica napus (BRSNN); 60 g/Ha) | Herbicidal activity on a 0-100 scale, BRAPL ([6]; 15 g/Ha) | Herbicidal activity on a 0-100 scale, BRAPL ([6]; 60 g/Ha) | Herbicidal activity on a 0-100 scale, BRAPL ([6]; 125 g/Ha) | Herbicidal activity on a 0-100 scale, BRAPL ([6]; 500 g/Ha)
50: Herbicidal activity KCHSC (Kochia scoparia (KSHSC); 125 g/Ha) | Herbicidal activity LOLPE (Lolium perenne (LOLPE); 30 g/Ha) | Herbicidal activity on a 0-100 scale, SORVU (Sorghum bicolour (SORVU); 30 g/Ha) | Herbicidal activity on a 0-100 scale, SORVU (Sorghum bicolour (SORVU); 60 g/Ha) | Herbicidal activity TRZAW ([7]; 500 g/Ha)
2: Herbicidal activity KCHSC (Kochia scoparia (KSHSC); 30 g/Ha)
0: Herbicidal activity POAAN (Poa annua (POAAN); 15 g/Ha) | Herbicidal activity on a 0-100 scale, DIGSA ([2]; 15 g/Ha) | Herbicidal activity on a 0-100 scale, DIGSA ([2]; 30 g/Ha) | Herbicidal activity on a 0-100 scale, DIGSA ([2]; 60 g/Ha) | Herbicidal activity KCHSC (Kochia scoparia (KSHSC); 15 g/Ha) | Herbicidal activity on a 0-100 scale, SORVU (Sorghum bicolour (SORVU); 15 g/Ha) | Herbicidal activity BROTE (Bromus tectorum (BROTE); 15 g/Ha) | Herbicidal activity BROTE (Bromus tectorum (BROTE); 30 g/Ha) | Herbicidal activity BROTE (Bromus tectorum (BROTE); 60 g/Ha) | Herbicidal activity BROTE (Bromus tectorum (BROTE); 125 g/Ha) | Herbicidal activity TRZAW ([7]; 15 g/Ha)
20: Herbicidal activity POAAN (Poa annua (POAAN); 60 g/Ha) | Herbicidal activity TRZAW ([7]; 125 g/Ha)
60: Herbicidal activity POAAN (Poa annua (POAAN); 125 g/Ha) | Herbicidal activity POAAN (Poa annua (POAAN); 500 g/Ha) | Herbicidal activity AVEFA (Avena fatua (AVEFA); 60 g/Ha) | Herbicidal activity KCHSC (Kochia scoparia (KSHSC); 250 g/Ha) | Herbicidal activity SINAR (Sinapis arvensis (SINAR); 15 g/Ha) | Herbicidal activity SINAR (Sinapis arvensis (SINAR); 30 g/Ha) | Herbicidal activity LOLPE (Lolium perenne (LOLPE); 60 g/Ha) | Herbicidal activity BEAVA (Beta vulgaris (BEAVA); 30 g/Ha) | Herbicidal activity BEAVA (Beta vulgaris (BEAVA); 60 g/Ha)
40: Herbicidal activity GLXMA (Glycine max (GLXMA); 15 g/Ha) | Herbicidal activity on a 0-100 scale, GLXMA (Glycine max (GLXMA); 15 g/Ha) | Herbicidal activity AVEFA (Avena fatua (AVEFA); 30 g/Ha) | Herbicidal activity LOLPE (Lolium perenne (LOLPE); 15 g/Ha)
100: Herbicidal activity SIDSP (Sida spinosa (SIDSP); 500 g/Ha) | Herbicidal activity AMARE ([1]; 125 g/Ha) | Herbicidal activity AMARE ([1]; 250 g/Ha) | Herbicidal activity AMARE ([1]; 500 g/Ha) | Herbicidal activity XANST ([3]; 500 g/Ha) | Herbicidal activity ABUTH ([4]; 250 g/Ha) | Herbicidal activity ABUTH ([4]; 500 g/Ha) | Herbicidal activity IPOHE ([5]; 30 g/Ha) | Herbicidal activity IPOHE ([5]; 60 g/Ha) | Herbicidal activity IPOHE ([5]; 125 g/Ha) | Herbicidal activity IPOHE ([5]; 250 g/Ha) | Herbicidal activity IPOHE ([5]; 500 g/Ha)
70: Herbicidal activity GLXMA (Glycine max (GLXMA); 30 g/Ha) | Herbicidal activity on a 0-100 scale, GLXMA (Glycine max (GLXMA); 30 g/Ha) | Herbicidal activity GLXMA (Glycine max (GLXMA); 60 g/Ha) | Herbicidal activity on a 0-100 scale, GLXMA (Glycine max (GLXMA); 60 g/Ha) | Herbicidal activity POAAN (Poa annua (POAAN); 250 g/Ha) | Herbicidal activity on a 0-100 scale, DIGSA ([2]; 500 g/Ha) | Herbicidal activity AVEFA (Avena fatua (AVEFA); 125 g/Ha) | Herbicidal activity AVEFA (Avena fatua (AVEFA); 250 g/Ha) | Herbicidal activity KCHSC (Kochia scoparia (KSHSC); 500 g/Ha) | Herbicidal activity LOLPE (Lolium perenne (LOLPE); 125 g/Ha) | Herbicidal activity on a 0-100 scale, SORVU (Sorghum bicolour (SORVU); 125 g/Ha) | Herbicidal activity BEAVA (Beta vulgaris (BEAVA); 15 g/Ha) | Herbicidal activity BEAVA (Beta vulgaris (BEAVA); 125 g/Ha) | Herbicidal activity BEAVA (Beta vulgaris (BEAVA); 250 g/Ha) | Herbicidal activity BEAVA (Beta vulgaris (BEAVA); 500 g/Ha) | Herbicidal activity on a 0-100 scale, BRAPL ([6]; 250 g/Ha)
10: Herbicidal activity POAAN (Poa annua (POAAN); 30 g/Ha) | Herbicidal activity on a 0-100 scale, DIGSA ([2]; 125 g/Ha) | Herbicidal activity BROTE (Bromus tectorum (BROTE); 250 g/Ha) | Herbicidal activity BROTE (Bromus tectorum (BROTE); 500 g/Ha) | Herbicidal activity TRZAW ([7]; 30 g/Ha) | Herbicidal activity TRZAW ([7]; 60 g/Ha)
90: Herbicidal activity SIDSP (Sida spinosa (SIDSP); 125 g/Ha) | Herbicidal activity SIDSP (Sida spinosa (SIDSP); 250 g/Ha) | Herbicidal activity GLXMA (Glycine max (GLXMA); 250 g/Ha) | Herbicidal activity on a 0-100 scale, GLXMA (Glycine max (GLXMA); 250 g/Ha) | Herbicidal activity GLXMA (Glycine max (GLXMA); 500 g/Ha) | Herbicidal activity on a 0-100 scale, GLXMA (Glycine max (GLXMA); 500 g/Ha) | Herbicidal activity AMARE ([1]; 30 g/Ha) | Herbicidal activity AMARE ([1]; 60 g/Ha) | Herbicidal activity SINAR (Sinapis arvensis (SINAR); 125 g/Ha) | Herbicidal activity SINAR (Sinapis arvensis (SINAR); 250 g/Ha) | Herbicidal activity SINAR (Sinapis arvensis (SINAR); 500 g/Ha) | Herbicidal activity XANST ([3]; 30 g/Ha) | Herbicidal activity XANST ([3]; 60 g/Ha) | Herbicidal activity XANST ([3]; 125 g/Ha) | Herbicidal activity XANST ([3]; 250 g/Ha) | Herbicidal activity LOLPE (Lolium perenne (LOLPE); 500 g/Ha) | Herbicidal activity ABUTH ([4]; 30 g/Ha) | Herbicidal activity ABUTH ([4]; 60 g/Ha) | Herbicidal activity ABUTH ([4]; 125 g/Ha) | Herbicidal activity on a 0-100 scale, SORVU (Sorghum bicolour (SORVU); 500 g/Ha) | Herbicidal activity IPOHE ([5]; 15 g/Ha) | Herbicidal activity BRSNN (Brassica napus (BRSNN); 125 g/Ha) | Herbicidal activity BRSNN (Brassica napus (BRSNN); 250 g/Ha) | Herbicidal activity BRSNN (Brassica napus (BRSNN); 500 g/Ha)
